Values quoted from earlier work, collected in PMC8067797, “An In Vivo Predictive Dissolution Methodology (iPD Methodology) with a BCS Class IIb Drug Can Predict the In Vivo Bioequivalence Results: Etoricoxib Products” (Pharmaceutics, 2021).
In brackets after ≈: the same amount, converted by molar mass. Several values for one entry are separate records, joined by “and”; a condition that tells them apart may be missing. Equal entries are not always repeated. Where two headings read alike, the source gives them in different places.

What was measured:
[1] = not given; remark: listed apart in the source
[2] = not given; remark: listed apart in the source
[3] = parameters: method as in Okumu et al. [7]; conditions: ref Okumu et al. [7]
[4] = parameters: method as in Schwartz et al. [23]; conditions: ref Schwartz et al. [23]
Caco-2 = conditions: used for plasma simulations; ref [6]
[5] = curve fitting of literature data, ref [6]

BCS classification (low solubility pH 4–7, high permeability): BCS class II | logP (ref [14]): 2.79 and 2.794 | pKa (weak base, ref [6],[7]): 4.96 | Cs, solubility ([1]; pH 4.5, ref [7]): 440 µg/mL | solubility in FaSSIF or simulated intestinal fluids (SIF phosphate buffer) ([1]; pH 6.8, ref [7]): 140 µg/mL (≈ 0.39 mM) | solubility in the stomach ([1]; ref Mitra el al. [6]): 25000 µg/mL (≈ 69.7 mM) | Central compartment volume—Vc ([2]; average value, curve fitting of literature data, ref [6],[9],[21]): 27.40 L | Distribution rate constant from central to peripheral compartment—k12 [2, 5]: 0.6180 h⁻¹ | Distribution rate constant from peripheral to central compartment—k21 [2, 5]: 0.2820 h⁻¹ | Elimination rate constant from central compartment—ke [2, 5]: 0.0899 h⁻¹ | Pharmacokinetics dose linearity ([2]; dose range 30–240 mg, ref [8]): linear | oral bioavailability ([2]; oral dosing, ref [8]): up to 100% | Oral absolute bioavailability ([2]; ref [9]): 83% | Oral absolute bioavailability ([2]; ref [10]): practically complete | precipitation in transfer system [3]: did not observe precipitation | supersaturation ratio (dissolved concentration / equilibrium solubility) ([3]; transfer system): below 3 | reduction of plasma Cmax ([4]; with calcium carbonate): 23% | reduction of plasma Cmax ([4]; with magnesium and aluminum hydroxide): 15% | Effective Permeability Small Intestine—Peff (Caco-2): 475 ×10⁻⁶ cm/s
Compound: Cc1ccc(-c2ncc(Cl)cc2-c2ccc(S(C)(=O)=O)cc2)cn1 [ETO, Etoricoxib]
